From ChEMBL document CHEMBL1153098, “Discovery of 2-arylthieno[3,2-d]pyrimidines containing 8-oxa-3-azabi-cyclo[3.2.1]octane in the 4-position as potent inhibitors of mTOR with selectivity over PI3K” (Bioorg Med Chem Lett, 2010)

Tests used:
[1] = Selectivity index, ratio of IC50 for PI3Kalpha to IC50 for mTOR
LNCaP = assay: Cytotoxicity against human LNCAP cells; assay type: functional, cell-based
[2] = molecular target: Serine/threonine-protein kinase mTOR (Homo sapiens, UniProt P42345); assay: Inhibition of mTOR
[3] = molecular target: Phosphatidylinositol 4,5-bisphosphate 3-kinase catalytic subunit alpha isoform (Homo sapiens, UniProt P42336); assay: Inhibition of PI3Kalpha
Chain of Phosphatidylinositol 4,5-bisphosphate 3-kinase catalytic subunit alpha isoform (P42336 whole entry, canonical isoform): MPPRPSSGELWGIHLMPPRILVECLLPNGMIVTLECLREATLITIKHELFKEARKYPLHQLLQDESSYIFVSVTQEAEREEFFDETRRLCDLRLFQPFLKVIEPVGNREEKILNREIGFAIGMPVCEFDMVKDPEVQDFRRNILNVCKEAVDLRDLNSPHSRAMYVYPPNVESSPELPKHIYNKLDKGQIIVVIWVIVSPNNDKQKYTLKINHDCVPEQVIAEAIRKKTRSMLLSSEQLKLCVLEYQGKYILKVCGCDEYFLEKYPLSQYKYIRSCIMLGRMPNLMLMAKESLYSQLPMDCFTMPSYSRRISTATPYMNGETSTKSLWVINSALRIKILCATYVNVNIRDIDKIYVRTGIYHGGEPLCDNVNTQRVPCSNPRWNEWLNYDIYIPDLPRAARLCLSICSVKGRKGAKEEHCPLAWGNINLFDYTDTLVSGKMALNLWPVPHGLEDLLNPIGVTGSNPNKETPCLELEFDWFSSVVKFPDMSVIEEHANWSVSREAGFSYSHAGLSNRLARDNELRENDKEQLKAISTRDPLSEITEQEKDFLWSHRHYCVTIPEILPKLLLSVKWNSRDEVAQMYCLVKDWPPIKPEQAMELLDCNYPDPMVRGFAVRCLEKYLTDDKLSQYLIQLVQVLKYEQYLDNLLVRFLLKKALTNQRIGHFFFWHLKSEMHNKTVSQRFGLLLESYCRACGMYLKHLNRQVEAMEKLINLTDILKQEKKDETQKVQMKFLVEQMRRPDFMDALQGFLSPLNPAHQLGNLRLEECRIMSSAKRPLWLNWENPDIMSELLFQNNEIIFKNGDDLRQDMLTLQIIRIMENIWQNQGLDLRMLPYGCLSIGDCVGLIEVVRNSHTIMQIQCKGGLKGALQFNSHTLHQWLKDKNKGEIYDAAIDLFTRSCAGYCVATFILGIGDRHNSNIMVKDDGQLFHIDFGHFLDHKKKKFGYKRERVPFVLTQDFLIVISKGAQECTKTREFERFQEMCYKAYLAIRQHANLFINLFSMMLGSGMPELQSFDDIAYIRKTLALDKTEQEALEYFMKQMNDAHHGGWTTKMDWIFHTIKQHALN

| Compound | Ratio IC50 [1] | IC50 (LNCaP) | IC50 [2] | IC50 [3] |
| --- | --- | --- | --- | --- |
| CN1CCN(Cc2cc3nc(-c4ccc(NC(=O)Nc5cccnc5)cc4)nc(N4CC5CCC(C4)O5)c3s2)CC1 | 31 | 0.148 µM |  |  |
| O=C(Nc1ccc(-c2nc(N3CC4CCC(C3)O4)c3sccc3n2)cc1)NC1CC1 | 2010 | 0.04 µM | 0.00068 µM |  |
| COC(=O)Nc1ccc(-c2nc(N3CC4CCC(C3)O4)c3sccc3n2)cc1 | 549 | 1.85 µM | 0.011 µM |  |
| CS(=O)(=O)N1CCN(Cc2cc3nc(-c4ccc(NC(=O)Nc5cccnc5)cc4)nc(N4CC5CCC(C4)O5)c3s2)CC1 |  |  | 0.0006 µM |  |
| CN1CCN(Cc2cc3nc(-c4ccc(NC(=O)Nc5ccncc5)cc4)nc(N4CC5CCC(C4)O5)c3s2)CC1 | 23 | 0.2 µM |  |  |
| O=C(NCCF)Nc1ccc(-c2nc(N3CC4CCC(C3)O4)c3sccc3n2)cc1 | 1110 | 0.087 µM | 0.0007 µM |  |
| Oc1ccc(-c2nc(N3CC4CCC(C3)O4)c3sccc3n2)cc1 |  |  | 0.032 µM |  |
| Nc1ncc(-c2nc(N3CCOCC3)c3sccc3n2)cn1 | 0.14 | 0.68 µM | 0.061 µM | 0.0085 µM |
| O=C(Nc1ccc(-c2nc(N3CC4CCC(C3)O4)c3sccc3n2)cc1)Nc1cccnc1 | 410 | 0.027 µM | 0.00029 µM |  |
| CNC(=O)Nc1ccc(-c2nc(N3CC4CCC(C3)O4)c3sc(CN4CCN(C)CC4)cc3n2)cc1 |  |  | 0.02 µM |  |
| Oc1cccc(-c2nc(N3CC4CCC(C3)O4)c3sccc3n2)c1 |  |  | 0.058 µM |  |
| O=C(Nc1ccncc1)Nc1ccc(-c2nc(N3CC4CCC(C3)O4)c3sccc3n2)cc1 | 182 | 0.01 µM | 0.00044 µM |  |
| CS(=O)(=O)N1CCN(Cc2cc3nc(-c4ccc(NC(=O)Nc5ccncc5)cc4)nc(N4CC5CCC(C4)O5)c3s2)CC1 | 19 | 0.12 µM |  | 0.0083 µM |
| Nc1ccc(-c2nc(N3CC4CCC(C3)O4)c3sccc3n2)cc1 |  |  |  | > 10 µM |
| CNC(=O)Nc1ccc(-c2nc(N3CC4CCC(C3)O4)c3sccc3n2)cc1 | 492 | 0.085 µM | 0.0009 µM |  |
| CC(=O)Nc1ccc(-c2nc(N3CC4CCC(C3)O4)c3sccc3n2)cc1 | 165 | 1.7 µM | 0.0265 µM |  |
| Oc1cccc(-c2nc(N3CCOCC3)c3sccc3n2)c1 | 0.9 | 1.3 µM | 0.049 µM | 0.041 µM |
| CNC(=O)Nc1ccc(-c2nc(N3CC4CCC(C3)O4)c3sc(CN4CCN(S(C)(=O)=O)CC4)cc3n2)cc1 | 33 | 0.12 µM |  |  |
| O=C(NCCO)Nc1ccc(-c2nc(N3CC4CCC(C3)O4)c3sccc3n2)cc1 |  |  | 0.00034 µM |  |
| CS(=O)(=O)N1CCN(Cc2cc3nc(-c4ccc(NC(=O)NC5CC5)cc4)nc(N4CC5CCC(C4)O5)c3s2)CC1 | 176 | 0.032 µM | 0.001 µM |  |
| Nc1ccc(-c2nc(N3CC4CCC(C3)O4)c3sccc3n2)cn1 | 51 | 1.25 µM | 0.035 µM |  |
| c1cc2cc(-c3nc(N4CC5CCC(C4)O5)c4sccc4n3)ccc2[nH]1 | 392 | 1.35 µM |  |  |
| CCNC(=O)Nc1ccc(-c2nc(N3CC4CCC(C3)O4)c3sccc3n2)cc1 |  |  | 0.0007 µM |  |
| Nc1ncc(-c2nc(N3CC4CCC(C3)O4)c3sccc3n2)cn1 | 4.4 | 1.2 µM | 0.057 µM |  |
| CN1CCN(Cc2cc3nc(-c4ccc(NC(=O)NC5CC5)cc4)nc(N4CC5CCC(C4)O5)c3s2)CC1 | 56 | 0.4 µM | 0.016 µM |  |
| O=C(Nc1ccccc1)Nc1ccc(-c2nc(N3CC4CCC(C3)O4)c3sccc3n2)cc1 |  |  | 0.00125 µM |  |
